Data as given in patent US20230049113A1, “METHODS OF TREATING WHSC1-OVEREXPRESSING CANCERS BY INHIBITING SETD2” (priority 2018, published 2023).
Entries after “also recorded” stand apart in the source; their conditions may differ.

Experiments:
H3K36me3 / H3K36me2 = test: Western blot of H3K36 methyl marks in KMS-34 cells; format: cell-based, human; conditions: KMS-34, after 14 days
Method: Cells were pelleted, washed with ice-cold 1×PBS, resuspended in ice-cold NP40 buffer, and incubated on ice for 30 minutes before sonication (Amplitude 30%/5 sec×1). […] Blots were imaged using the Odyssey Imaging System (LICOR Biosciences).

[1] = 7-day dose range finding study in mice
Method: Dose Range Finding Studies
(§2) All the procedures related to animal handling, care, and treatment in this study were performed according to the guidelines approved by the Institutional Animal Care and Use Committee of Pharmaron, Beijing, China and following the guidance of the Association for Assessment and Accreditation of Laboratory Animal Care.
(§3) Six to eight-week-old NOD SCID mice were purchased from Beijing HFK Bioscience Co., Ltd. Mice were housed in polycarbonate cages maintained at a temperature of (22+/−3° C.) and relative humidity of 40-70%. Animals had free access to sterile drinking water and irradiation sterilized dry granule food throughout the study.

[2] = mouse, in vivo
Method: Dose Range Finding Studies
as §2, §3

KMS11 tumors = format: in vivo
Method: NOD SCID mice received 1×10^7 cells (0.1 mL cell suspension) subcutaneously in the right flank. […] The maximal treatment length was 28 days. Tumor volumes (twice weekly) and body weight (daily) were recorded throughout the experiment. On day 7 or day 28 during the studies, mice were sampled in a pre-specified fashion. Sampling included nonterminal retro-orbital bleeds and full volume blood collection via terminal cardiac puncture under CO2 anesthesia. Blood samples were processed for plasma, with K2-EDTA as anticoagulant, and PBMCs isolated. The samples were frozen at −80° C. and stored before analysis. Tumors were harvested from specified mice under RNase-free conditions and snap frozen in liquid nitrogen. Bone marrow was flushed from the femur using 1×PBS, strained over a 40 um nylon strainer, and flash frozen. Histones were extracted from tumors, bone marrow, and PBMCs as previously described.
(§1) Fluorescent-Based ELISA Assay (Fluroimmunoassay (FIA) Detection of Anti-Histone H3 Tri-Methyl K36)
Histones were prepared in coating buffer and added directly to high-binding 96 well plates. Plates were left at 4° C. overnight to allow histones to adhere. […] Plates were imaged on the Odyssey Imaging System (LI-COR Biosciences) using both 700 nm and 800 nm channels. The average of the ratio values for each test sample was calculated by dividing the 800 nm (H3K36me3) value by the 700 nm value (total H3) and used to determine the percent of H3K36me3 from vehicle.

MM.1S tumors = test: MM.1S non-t(4;14) multiple myeloma xenograft; format: in vivo, CB17 SCID mice
Method: CB17 SCID mice were inoculated subcutaneously in the right flank with MM.1S tumor cells (5×10^6) in 0.2 mL of PBS mixed with Matrigel (50:50). After 18 days, mice bearing 100 to 150 mm^3 tumors were sorted into treatment groups with mean tumor volumes of 103 mm^3 (n=10 mice per group). […] The maximal treatment length was 23 days. Tumor volumes and body weight were recorded twice weekly throughout the experiment. On day 18 or day 41 during the studies, mice were sampled in a pre-specified fashion. Sampling included nonterminal retro-orbital bleeds and full volume blood collection via terminal cardiac puncture under CO2 anesthesia. Blood samples were processed for plasma, with K2-EDTA as anticoagulant, and PBMCs isolated. The samples were frozen at −80° C. and stored before analysis. Tumors were harvested from specified mice under RNase-free conditions and snap frozen in liquid nitrogen. Bone marrow was flushed from the femur using 1×PBS, strained over a 40 um nylon strainer, and flash frozen.
as §1
Histones were prepared in coating buffer and added directly to high-binding 96 well plates. […] The average of the ratio values for each test sample was calculated by dividing the 800 nm (H3K36me3) value by the 700 nm value (total H3) and used to determine the percent of H3K36me3 from vehicle.

KMS-34 cells = test: In vitro long-term proliferation (LTP) 14-day assay, KMS-34; format: cell-based, human; conditions: FIG. 2C, comparison of enantiomers
KMS11 TKO cells = test: In vitro long-term proliferation (LTP) 14-day assay, KMS11 TKO; format: cell-based, human; conditions: KMS11 TKO (non-translocated WHSC1 allele only), 14 days
From the text: In Vitro Long-Term Proliferation (LTP) Assay

CC(=O)N1CCN([C@H]2CCC[C@@H](NC(=O)c3cc4c(F)ccc(C)c4[nH]3)C2)CC1 [Cpd. No. 15, N-((1R,3S)-3-(4-acetylpiperazin-1-yl)cyclohexyl)-4-fluoro-7-methyl-1H-indole-2-carboxamide]
H3K36me2 level (H3K36me3 / H3K36me2): unaffected; also recorded: remained unaltered | H3K36me3 level (H3K36me3 / H3K36me2): dose-dependent decrease; also recorded: reduced | body weight ([1]; 62.5 and 125 mg/kg BID, 7 days, versus vehicle control): No body weight loss | H3K36me3 levels in naïve bone marrow ([1]; oral dosing, 7-day study): substantial reduction | tolerability [2]: very well tolerated | effect on body weight (KMS11 tumors; 31.25 mg/kg and 62.5 mg/kg, 28 days BID): minimal effects on body weight | H3K36me3 in histones from tumor (fluorescent-based ELISA) (KMS11 tumors; day 28, all doses): complete reduction | tumor response (KMS11 tumors; oral, 28 days, dose-dependent): robust tumor growth regression | H3K36me3 in MM.1S tumor samples (fluorescent-based ELISA) (MM.1S tumors; BID oral dosing): reduction; also recorded: dose dependent decrease | body weight (MM.1S tumors; all doses, 23 continuous days BID): minimal body weight loss; also recorded: minimal changes in body weight | proliferation defects (KMS-34 cells): proliferation defects | proliferation effect (KMS11 TKO cells): no proliferation effects
